# Key:
# Type in all cases: cell-based, human
# [1] = test system: monocyte progenitors (monocyte prog); assay: MLTA, MonoP: concentration-response and QSP model fit; conditions: Homo sapiens, Monocyte; for Emax: 144 h, parameter from QSP model fitting, read-out: Emax_drug_MonoP; for EC50: QSP model parameter, sheet EC50_parameters, MonoP, read-out: EC50MonoP
# Procedure: (§1) A custom optimized cytokine cocktail was developed using commercially available cytokines (Peprotech, New Jersey) to facilitate simultaneous multi-lineage differentiation and self-renewal of freeze-thawed primary human bone marrow-derived CD34+ cells in SFEM II media (cells and media from StemCell Technologies, Vancouver). Cultures were carried out in ultra-low attachment 96-well plates (Corning, New York) with test article added on day 0 and cultured at 37°C, 85% relative humidity, and 5% CO2 for six days before interrogating drug impact via 17-parameter flow cytometry.
# (§2) The flow cytometry panel used to define hematopoietic subsets was composed of CD34-PECy7, CD90-PECY5, CD38-AF488, CD371-PE, CD45Ra-BV421, CD14-BV605, CD42b-AF647, CD10-PEDazzle594, CD235a-PerCPCy5.5 (BioLegend, California), CD15-BUV395, CD41a-APCH7, CD71-BV786 (BD Biosciences, California), and DAPI for dead cell exclusion (ThermoFisher, California). In short, Day 6 cells were harvested, FcR-blocked (FcR binding inhibitor, ThermoFisher), surface-stained, then analyzed in a buffer containing TruCount Control Beads using a BD LSR Fortessa SORP fitted with a high-throughput sampler (BD Biosciences, California). Data was analyzed in Diva 6.0.2 and exported to CSV where after all cell data was transformed to cell per mL then normalized on a per-donor basis to untreated control wells to determine drug impact.
# (§3) Donor material was collected and cultured as described above. The number of replicate donor samples per drug ranged from 2–7 and varied per drug (S1 Table). Drug treatment was added at time 0 and cells were maintained in culture for 6 days. Concentrations tested for each drug compound are contained in S1 Table. Concentrations were selected to span a range that is clinically useful. Following treatment, cell populations were measured using flow cytometry. We extracted cell counts from flow cytometry data, normalized to bead counts, and corrected for well volume.
# (§4) Each well was normalized to the average of six vehicle control wells. For drugs that were tested across multiple runs of the assay, vehicle-normalized donor data were pooled, and we used the average of these pooled data for further modeling. Normalized data used as model inputs are included in S1 Table.
# (§5) We implemented drug effects using an Emax model for the drug’s effect on each cell type. The 13 maximum effect parameters (EmaxT,C) are unitless and can vary between 0 and 2 and where a subscript, C, represents one of the previously described 13 cell types. We adapted a traditional Emax model using the equations below. We interpreted EmaxT values less than or equal to one as anti-proliferative, and EmaxT values greater than one as indicating a cell-killing mechanism in addition to anti-proliferation. The relationships for these effects are included in the model using the following equations. Eq 2 describes the drug anti-proliferative effect in the net proliferation rate for a given cell type. Eq 3 describes the cell-killing EmaxCK effect.
# (§6) Towards the estimation of mechanistic parameters, we considered different formulations: (a) weighting the objective value to prioritize fitting dead cells and (b) using regularization methodology to encourage a parsimonious solution. We assessed the contributions of these formulations using mean-squared error and goodness of fit plots for drugs with known mechanisms. […] Further, we used L1 regularization to penalize parameters […] to help identify a parsimonious set of parameters to explain drug effects.
# [2] = test system: lymphocyte progenitors (LymP); assay: MLTA, LymP: concentration-response and QSP model fit; conditions: Homo sapiens, Lymphocyte; for Emax: 144 h, parameter from QSP model fitting, read-out: Emax_drug_LymP; for EC50: QSP model parameter, sheet EC50_parameters, LymP
# Procedure: as §1, §2, §3, §4, §5, §6
# [3] = test system: granulocyte progenitor (Gran-lin prog); assay: MLTA, GranP: concentration-response and QSP model fit; conditions: Homo sapiens; for Emax: 144 h, parameter from QSP model fitting, read-out: Emax_drug_GranP; for EC50: QSP model parameter, sheet EC50_parameters, GranP, read-out: EC50GranP
# Procedure: as §1, §2, §3, §4, §5, §6
# [4] = test system: B cells (B-lin); assay: MLTA, B-lin: concentration-response and QSP model fit; conditions: Homo sapiens, B-cell; for Emax: 144 h, parameter from QSP model fitting, read-out: Emax_drug_B; for EC50: QSP model parameter, sheet EC50_parameters, B
# Procedure: as §1, §2, §3, §4, §5, §6
# [5] = test system: early erythroid cells (Eryth I); assay: MLTA, ErythI: concentration-response and QSP model fit; conditions: Homo sapiens; for Emax: 144 h, parameter from QSP model fitting, read-out: Emax_drug_ErythroidI; for EC50: QSP model parameter, sheet EC50_parameters, Erythroid I, read-out: EC50ErythroidI
# Procedure: as §1, §2, §3, §4, §5, §6
# [6] = test system: neutrophils (neutrophil-lin); assay: MLTA, Neut: concentration-response and QSP model fit; conditions: Homo sapiens, Neutrophil; for Emax: 144 h, parameter from QSP model fitting, read-out: Emax_drug_Neut; for EC50: QSP model parameter, sheet EC50_parameters, Neut
# Procedure: as §1, §2, §3, §4, §5, §6
# [7] = test system: monocytes (monocyte-lin); assay: MLTA, Mono: concentration-response and QSP model fit; conditions: Homo sapiens, Monocyte; for Emax: 144 h, parameter from QSP model fitting, read-out: Emax_drug_Mono; for EC50: QSP model parameter, sheet EC50_parameters, Mono
# Procedure: as §1, §2, §3, §4, §5, §6
# [8] = test system: late erythroid cells (Eryth II); assay: MLTA, ErythII: concentration-response and QSP model fit; conditions: Homo sapiens; for Emax: 144 h, parameter from QSP model fitting, read-out: Emax_drug_ErythroidII; for EC50: QSP model parameter, sheet EC50_parameters, Erythroid II, read-out: EC50ErythroidII
# Procedure: as §1, §2, §3, §4, §5, §6
# [9] = test system: MK cells (MK-lin); assay: MLTA, MK: concentration-response and QSP model fit; conditions: Homo sapiens; for Emax: 144 h, parameter from QSP model fitting, read-out: Emax_drug_MK; for EC50: QSP model parameter, sheet EC50_parameters, MK
# Procedure: as §1, §2, §3, §4, §5, §6
# [10] = test system: granulocyte-macrophage progenitor (GMPs); assay: MLTA, GMPs: concentration-response and QSP model fit; conditions: Homo sapiens; QSP model parameter, sheet EC50_parameters; GMPs
# Procedure: as §1, §2, §3, §4, §5, §6
# [11] = test system: granulocytes (Gran-lin); assay: MLTA, Gran: concentration-response and QSP model fit; conditions: Homo sapiens; for Emax: 144 h, parameter from QSP model fitting, read-out: Emax_drug_Gran; for EC50: QSP model parameter, sheet EC50_parameters, Gran
# Procedure: as §1, §2, §3, §4, §5, §6
# [12] = test system: hematopoietic stem cells (HSCs); assay: Multi-lineage toxicity assay (MLTA), HSCs: concentration-response and QSP model fit; conditions: Homo sapiens, Hematopoietic stem cell; for Emax: 144 h, parameter from QSP model fitting, read-out: Emax_drug_HSC; for EC50: QSP model parameter, sheet EC50_parameters, HSCs
# Procedure: as §1, §2, §3, §4, §5, §6
# [13] = test system: multi-potent progenitors (MPPs); assay: MLTA, MPPs: concentration-response and QSP model fit; conditions: Homo sapiens; for Emax: 144 h, parameter from QSP model fitting, read-out: Emax_drug_MPP; for EC50: QSP model parameter, sheet EC50_parameters, MPPs
# Procedure: as §1, §2, §3, §4, §5, §6
structure (smiles),measurement,setting,value
Nc1cccc2c1CN(C1CCC(=O)NC1=O)C2=O (centres unmarked) [Lenalidomide],Emax,[1],3.83e-05%
same,EC50,[1],1050 nM
same,Emax,[2],0.0004%
same,EC50,[2],26.7 nM
same,Emax,[3],5.98e-05%
same,EC50,[3],937 nM
same,Emax,[4],1.49e-05%
same,EC50,[4],1000 nM
same,Emax,[5],1.17e-05%
same,EC50,[5],76.9 nM
same,Emax,[6],4.07e-06%
same,EC50,[6],2690 nM
same,Emax,[7],3.68e-06%
same,EC50,[7],292 nM
same,Emax,[8],1.48e-06%
same,EC50,[8],262 nM
same,Emax,[9],2.23e-06%
same,EC50,[9],763 nM
same,EC50,[10],3060 nM
same,Emax,[11],9.94e-05%
same,EC50,[11],3180 nM
same,Emax,[12],1.33e-06%
same,EC50,[12],1130 nM
same,Emax,[13],4.52e-05%
same,EC50,[13],786 nM
Cc1sc2c(c1C)C(c1ccc(Cl)cc1)=N[C@@H](CC(=O)Nc1ccc(O)cc1)c1nnc(C)n1-2 [OTX015],Emax,[1],0.18%
same,EC50,[1],114 nM
same,Emax,[2],115%
same,EC50,[2],241 nM
same,Emax,[3],0.16%
same,EC50,[3],176 nM
same,Emax,[4],76.8%
same,EC50,[4],425 nM
same,Emax,[5],195%
same,EC50,[5],1180 nM
same,Emax,[6],16.7%
same,EC50,[6],88.3 nM
same,Emax,[7],37.5%
same,EC50,[7],264 nM
same,Emax,[8],12%
same,EC50,[8],173 nM
same,Emax,[9],26.9%
same,EC50,[9],4130 nM
same,EC50,[10],851 nM
same,Emax,[11],126%
same,EC50,[11],364 nM
same,Emax,[12],40.1%
same,EC50,[12],241 nM
same,Emax,[13],0.05%
same,EC50,[13],427 nM
